Test results taken from patent publication US11351178B2, “Selective HDAC6 inhibitors” (ITALFARMACO S.P.A., priority 2017, dated 2022).
Where two headings read alike, the source gives them in different places.

Columns and labels:
[1] = target: T1, recombinant human HDAC6 (Homo sapiens, UniProt Q9UBN7); test: Enzymatic screening on recombinant human HDAC6; type: biochemical; conditions: Table 2
T1 sequence (Q9UBN7 1-1215): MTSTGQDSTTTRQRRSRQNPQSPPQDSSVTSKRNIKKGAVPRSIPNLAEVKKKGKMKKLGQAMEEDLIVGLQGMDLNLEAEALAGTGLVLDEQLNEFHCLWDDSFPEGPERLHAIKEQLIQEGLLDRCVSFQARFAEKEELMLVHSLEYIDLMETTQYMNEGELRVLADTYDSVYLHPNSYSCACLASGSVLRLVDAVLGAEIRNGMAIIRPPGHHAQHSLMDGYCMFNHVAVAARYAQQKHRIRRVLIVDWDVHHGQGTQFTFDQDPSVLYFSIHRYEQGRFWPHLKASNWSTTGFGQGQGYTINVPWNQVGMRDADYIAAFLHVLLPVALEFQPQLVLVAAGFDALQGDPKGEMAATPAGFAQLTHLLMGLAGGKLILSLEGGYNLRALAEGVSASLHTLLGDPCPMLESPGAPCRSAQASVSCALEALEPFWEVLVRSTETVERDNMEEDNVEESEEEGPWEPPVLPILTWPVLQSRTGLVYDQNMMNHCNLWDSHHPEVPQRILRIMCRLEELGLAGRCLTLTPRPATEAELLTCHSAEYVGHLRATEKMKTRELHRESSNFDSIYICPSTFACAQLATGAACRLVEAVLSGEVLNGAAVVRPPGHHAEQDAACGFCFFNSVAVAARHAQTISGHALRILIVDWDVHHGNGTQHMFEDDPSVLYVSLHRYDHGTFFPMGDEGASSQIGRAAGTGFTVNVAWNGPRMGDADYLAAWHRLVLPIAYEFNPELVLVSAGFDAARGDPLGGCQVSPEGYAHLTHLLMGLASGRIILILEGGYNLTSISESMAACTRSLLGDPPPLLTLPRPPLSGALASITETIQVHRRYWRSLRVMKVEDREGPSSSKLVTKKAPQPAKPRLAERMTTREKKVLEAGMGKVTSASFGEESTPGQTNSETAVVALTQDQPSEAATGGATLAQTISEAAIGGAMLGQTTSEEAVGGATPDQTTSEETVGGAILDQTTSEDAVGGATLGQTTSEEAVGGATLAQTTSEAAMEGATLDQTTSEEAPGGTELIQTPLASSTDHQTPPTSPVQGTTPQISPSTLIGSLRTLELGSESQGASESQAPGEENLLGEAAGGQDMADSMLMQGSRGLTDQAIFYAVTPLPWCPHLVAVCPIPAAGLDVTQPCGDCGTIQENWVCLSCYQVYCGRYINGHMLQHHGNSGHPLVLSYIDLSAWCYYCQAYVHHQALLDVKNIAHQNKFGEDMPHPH
Method in brief: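 Substrates were Fluor de Lys, Fluor de Lys-Green or trifluoroacetyl-L-lysine, in 25 mM Tris-HCl pH 8, 130 mM NaCl, 0.05% Tween-20, 10% glycerol. They were added after isoform-dependent preincubation of recombinant human enzyme with compound at 30 °C, and the reaction also ran at 30 °C.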

[2] = system: B 697 promyelocytic cell line; test: Cytotoxicity on 697 cell line (CellTiter 96); type: cell-based; conditions: 72 hours incubation, read-out: 697 TOXICITY
Method in brief: (§1)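 Cells seeded (2×10^4/well for 697, 5×10^5/well for PBMCs); compounds added after 24 h at 1–10000 nM (697) or 1.5–10000 nM (PBMCs) and incubated 72 h. Viability read by CellTiter 96 Aqueous One tetrazolium assay of mitochondrial function.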

[3] = system: peripheral blood mononuclear cells (PBMCs); test: Cytotoxicity on PBMCs (CellTiter 96); type: cell-based; conditions: PBMC, 72 h; read-out: PBMC TOXICITY (72 h)
Method in brief: as §1

[4] = Stability to Phase I metabolism in rat S9 liver fraction; type: in vitro ADME; conditions: after 90 min, 37° C.
Method in brief: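 Compounds were incubated with rat or human liver S9 fraction at 37 °C for up to 90 min. Reactions were quenched on ice with acidified acetonitrile and analysed by HPLC-UV or LC-MS/MS. Percent remaining versus time zero and intrinsic clearance were calculated.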

[5] = Stability to Phase I metabolism in human S9 liver fraction; type: in vitro ADME
Method: Test compounds were incubated in rat and human liver S9 fraction at 37° C. up to 90 minutes in order to evaluate their stability to Phase I metabolism by hepatic enzymes. […] The reaction was stopped placing samples on ice bath and adding acidified acetonitrile. After centrifugation (10 minutes at 14000 rpm) an aliquot of the supernatant was diluted water, filtered with 0.45 μm regenerated cellulose syringe filters and injected in HPLC-UV or in LC-MS/MS. The percentages of the amount remaining at the various incubation times with respect to the initial amount were calculated. The intrinsic clearance was also calculated.

[6] = Stability in rat plasma; type: in vitro ADME; conditions: after 4 hours, 37° C.
Method in brief: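 Compounds incubated at 37° C in rat or human plasma at 50 μM (UV/HPLC) or 1 or 2 μM (LC-MS/MS) for 0–4 h. Reaction stopped with acidified acetonitrile on ice; percent remaining versus initial amount and plasma half-life calculated.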

[7] = Stability in human plasma; type: in vitro ADME; conditions: after 4 hours, 37° C.
Method: In order to evaluate the stability to circulating enzymes, test compounds were incubated in human and rat plasma at 37° C. in a thermostated oscillating bath. Each test compound was incubated at μM (50 μM when the samples were analysed by UV/HPLC, 1 or 2 μM when the samples were analysed by LC-MS/MS) concentration for 0, 15, 30 min and 1, 2 and 4 hours. The reaction was stopped placing tubes on ice bath and adding acidified acetonitrile. After centrifugation for 10 minutes at 14000 rpm, an aliquot of the supernatant was diluted with water, filtered with 0.45 μm syringe filters and injected in HPLC-UV or in LC-MS/MS. The percentages of amount remaining at the various times of incubation with respect to initial amount were calculated. The half-life in plasma was also calculated.

[8] = human liver S9 fraction, after 90 min, 37° C.

Row | Structure (SMILES) | IC50 ([1]; read-out: HDAC6 IC50) | IC50 [2] | IC50 [3] | residual percentage in rat S9 fraction [4] | residual percentage in human S9 fraction ([5]; human, 90 min, pH 7.4) | residual percentage in rat plasma [6] | residual percentage in human plasma [7] | residual percentage in human S9 fraction [5, 8] | IC50 ([1]; HDAC6 IC50 (nM))
1 | CN(C)S(=O)(=O)c1cccc(-c2nnc(Cc3ccc(C(=O)NO)cc3)o2)c1 [comp. 3, 4-((5-(3-(N,N-dimethylsulfamoyl)phenyl)-1,3,4-oxadiazol-2-yl)methyl)-N-hydroxybenzamide] | 11 nM | 2.88 µM | 0.735 µM | 66% | 93% | 79% | 100% | – | –
2 | O=C(NO)c1cc(F)c(Cn2nnc(-c3ncccn3)n2)c(F)c1 [comp. 7] | – | 4.19 µM | 10 µM | 96% | – | 77% | 93% | 89% | –
3 | Cn1c(Sc2c(F)cc(C(=O)NO)cc2F)nnc1-c1ccccn1 [comp. 14, 3,5-difluoro-N-hydroxy-4-((4-methyl-5-(pyridin-2-yl)-4H-1,2,4-triazol-3-yl)thio)benzamide] | 8 nM | 3.94 µM | > 10 µM | 88% | 87% | 38% | 77% | – | –
4 | O=C(NO)c1ccc(Cn2nnnc2-c2ccccn2)cc1 [comp. 20, N-hydroxy-4-((5-(pyridin-2-yl)-1H-tetrazol-1-yl)methyl)benzamide] | 4 nM | 1.12 µM | 2 µM | 88% | 101.7% | 98.5% | 94.3% | – | –
5 | Cc1cc(-c2nnc(Sc3c(F)cc(C(=O)NO)cc3F)n2C)nn1C [comp. 100, 4-[[5-(1,5-dimethylpyrazol-3-yl)-4-methyl-1,2,4-triazol-3-yl]sulfanyl]-3,5-difluoro-benzenecarbohydroxamic acid] | – | 7.09 µM | 10 µM | 30% | – | 80% | 92% | 76% | 7 nM
6 | Cn1c(Sc2c(F)cc(C(=O)NO)cc2F)nnc1-c1coc(CN2CCOCC2)c1 [comp. 203, 3,5-difluoro-4-[[4-methyl-5-[5-(morpholinomethyl)-3-furyl]-1,2,4-triazol-3-yl]sulfanyl]benzenecarbohydroxamic acid] | 14 nM | 15.2 µM | > 10 µM | 58% | 74% | 94% | 95% | – | –
7 | CN1CCN(Cc2ccc(-c3nnc(Sc4c(F)cc(C(=O)NO)cc4F)n3C)o2)CC1 [comp. 205, 3,5-difluoro-4-[[4-methyl-5-[5-[(4-methylpiperazin-1-yl)methyl]-2-furyl]-1,2,4-triazol-3-yl]sulfanyl]benzenecarbohydroxamic acid] | 5 nM | 15.4 µM | – | 71% | 95% | 89% | 80% | – | –
8 | CCc1oc(-c2nnc(Sc3c(F)cc(C(=O)NO)cc3F)n2C)cc1CN1CCCC1 [comp. 208, 4-[[5-[5-ethyl-4-(pyrrolidin-1-ylmethyl)-2-furyl]-4-methyl-1,2,4-triazol-3-yl]sulfanyl]-3,5-difluoro-benzenecarbohydroxamic acid] | 4 nM | 15.4 µM | – | 81% | 81% | 81% | 87% | – | –
9 | CN1CCN(Cc2ccc(-c3nnc(Sc4ccc(C(=O)NO)cc4)n3C)o2)CC1 [comp. 209, 4-[[4-methyl-5-[5-[(4-methylpiperazin-1-yl)methyl]-2-furyl]-1,2,4-triazol-3-yl]sulfanyl]benzenecarbohydroxamic acid] | 11 nM | 15.4 µM | – | 84% | 100% | 69% | 77% | – | –
10 | Cn1c(Sc2c(F)cc(C(=O)NO)cc2F)nnc1-c1ccc(CCN2CCCC2)nc1 [comp. 210, 3,5-difluoro-4-[[4-methyl-5-[6-(2-pyrrolidin-1-ylethyl)-3-pyridyl]-1,2,4-triazol-3-yl]sulfanyl]benzenecarbohydroxamic acid] | 7 nM | 10.4 µM | > 10 µM | 71% | 80% | 84% | 79% | – | –
11 | Cn1c(Sc2c(F)cc(C(=O)NO)cc2F)nnc1-c1ccc(CN2CCCCC2)o1 [comp. 212, 3,5-difluoro-4-[[4-methyl-5-[5-(1-piperidylmethyl)-2-furyl]-1,2,4-triazol-3-yl]sulfanyl]benzenecarbohydroxamic acid] | 6 nM | 15.4 µM | – | 60% | 75% | 81% | 83% | – | –
12 | CCN(CC)Cc1cc(-c2nnc(Sc3c(F)cc(C(=O)NO)cc3F)n2C)c(C)o1 [comp. 213, 4-[[5-[5-(diethylaminomethyl)-2-methyl-3-furyl]-4-methyl-1,2,4-triazol-3-yl]sulfanyl]-3,5-difluoro-benzenecarbohydroxamic acid] | 13 nM | 15.4 µM | – | 58% | 63% | 80% | 97% | – | –
13 | O=C(NO)c1ccc(Cn2nnc(-c3ccccc3)n2)cc1 [comp. 214, 4-[(5-phenyltetrazol-2-yl)methyl]benzenecarbohydroxamic acid] | 3 nM | 0.409 µM | – | 9% | 73% | 60% | 92% | – | –
